# ChEMBL document CHEMBL5678818, “Discovery of potent SOS1 inhibitors that block RAS activation via disruption of the RAS-SOS1 interaction” (Proc Natl Acad Sci U S A, 2019)
# Assays:
# [1] = biological target: T1, Serine/threonine-protein kinase Nek1 (Homo sapiens) (UniProt Q96PY6); test: Inhibition of NEK1 (unknown origin) assessed as residual activity at 100 nM by KINOMEscan analysis relative to control
# T1 sequence (whole entry): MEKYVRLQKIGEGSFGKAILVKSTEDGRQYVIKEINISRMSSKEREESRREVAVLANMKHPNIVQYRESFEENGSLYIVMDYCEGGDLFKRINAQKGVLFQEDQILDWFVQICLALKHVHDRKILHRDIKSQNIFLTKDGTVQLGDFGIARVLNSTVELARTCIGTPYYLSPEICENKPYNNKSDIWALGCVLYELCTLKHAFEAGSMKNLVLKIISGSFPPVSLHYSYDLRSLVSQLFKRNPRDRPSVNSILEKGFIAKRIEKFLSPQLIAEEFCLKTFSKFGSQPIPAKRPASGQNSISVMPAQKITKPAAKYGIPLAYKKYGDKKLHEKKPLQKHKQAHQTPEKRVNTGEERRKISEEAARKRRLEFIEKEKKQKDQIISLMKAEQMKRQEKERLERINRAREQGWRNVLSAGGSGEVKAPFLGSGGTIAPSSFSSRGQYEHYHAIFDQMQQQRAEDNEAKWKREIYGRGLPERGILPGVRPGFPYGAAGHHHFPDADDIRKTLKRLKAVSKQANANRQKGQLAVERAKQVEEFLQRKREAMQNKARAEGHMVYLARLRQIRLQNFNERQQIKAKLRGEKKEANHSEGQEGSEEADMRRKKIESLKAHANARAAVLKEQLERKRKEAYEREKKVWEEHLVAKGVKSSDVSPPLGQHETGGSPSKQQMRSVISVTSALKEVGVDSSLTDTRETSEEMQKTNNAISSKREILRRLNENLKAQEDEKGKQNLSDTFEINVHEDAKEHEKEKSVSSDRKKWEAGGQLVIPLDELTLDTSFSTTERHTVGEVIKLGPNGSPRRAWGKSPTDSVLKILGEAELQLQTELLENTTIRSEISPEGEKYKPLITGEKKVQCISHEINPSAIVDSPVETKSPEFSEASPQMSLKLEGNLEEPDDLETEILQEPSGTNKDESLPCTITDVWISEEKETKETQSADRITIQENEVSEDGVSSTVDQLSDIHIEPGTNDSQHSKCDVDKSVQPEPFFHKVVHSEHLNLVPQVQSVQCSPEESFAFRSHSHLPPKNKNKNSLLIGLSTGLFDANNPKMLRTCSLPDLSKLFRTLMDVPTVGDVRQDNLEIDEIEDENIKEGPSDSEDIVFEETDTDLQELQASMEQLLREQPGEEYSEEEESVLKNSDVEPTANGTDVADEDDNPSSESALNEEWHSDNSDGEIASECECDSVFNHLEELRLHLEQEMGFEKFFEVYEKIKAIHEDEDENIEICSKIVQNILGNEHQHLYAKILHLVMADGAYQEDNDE
# [2] = biological target: T2, Casein kinase I isoform alpha-like (Homo sapiens) (UniProt Q8N752); test: Inhibition of CSNK1A1L (unknown origin) assessed as residual activity at 100 nM by KINOMEscan analysis relative to control
# T2 sequence (whole entry): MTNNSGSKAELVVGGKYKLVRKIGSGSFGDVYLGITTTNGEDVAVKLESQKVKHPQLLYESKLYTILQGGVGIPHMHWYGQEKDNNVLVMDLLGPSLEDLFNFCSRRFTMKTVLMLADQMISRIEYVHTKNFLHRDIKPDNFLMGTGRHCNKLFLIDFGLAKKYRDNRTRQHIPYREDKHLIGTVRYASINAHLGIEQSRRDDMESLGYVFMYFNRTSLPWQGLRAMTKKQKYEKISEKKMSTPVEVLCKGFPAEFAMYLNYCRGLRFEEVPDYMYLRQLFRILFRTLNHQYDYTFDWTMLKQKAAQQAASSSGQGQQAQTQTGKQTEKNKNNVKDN
# [3] = biological target: T3, Muscle, skeletal receptor tyrosine-protein kinase (Homo sapiens) (UniProt O15146); test: Inhibition of MUSK (unknown origin) assessed as residual activity at 100 nM by KINOMEscan analysis relative to control
# T3 sequence (whole entry): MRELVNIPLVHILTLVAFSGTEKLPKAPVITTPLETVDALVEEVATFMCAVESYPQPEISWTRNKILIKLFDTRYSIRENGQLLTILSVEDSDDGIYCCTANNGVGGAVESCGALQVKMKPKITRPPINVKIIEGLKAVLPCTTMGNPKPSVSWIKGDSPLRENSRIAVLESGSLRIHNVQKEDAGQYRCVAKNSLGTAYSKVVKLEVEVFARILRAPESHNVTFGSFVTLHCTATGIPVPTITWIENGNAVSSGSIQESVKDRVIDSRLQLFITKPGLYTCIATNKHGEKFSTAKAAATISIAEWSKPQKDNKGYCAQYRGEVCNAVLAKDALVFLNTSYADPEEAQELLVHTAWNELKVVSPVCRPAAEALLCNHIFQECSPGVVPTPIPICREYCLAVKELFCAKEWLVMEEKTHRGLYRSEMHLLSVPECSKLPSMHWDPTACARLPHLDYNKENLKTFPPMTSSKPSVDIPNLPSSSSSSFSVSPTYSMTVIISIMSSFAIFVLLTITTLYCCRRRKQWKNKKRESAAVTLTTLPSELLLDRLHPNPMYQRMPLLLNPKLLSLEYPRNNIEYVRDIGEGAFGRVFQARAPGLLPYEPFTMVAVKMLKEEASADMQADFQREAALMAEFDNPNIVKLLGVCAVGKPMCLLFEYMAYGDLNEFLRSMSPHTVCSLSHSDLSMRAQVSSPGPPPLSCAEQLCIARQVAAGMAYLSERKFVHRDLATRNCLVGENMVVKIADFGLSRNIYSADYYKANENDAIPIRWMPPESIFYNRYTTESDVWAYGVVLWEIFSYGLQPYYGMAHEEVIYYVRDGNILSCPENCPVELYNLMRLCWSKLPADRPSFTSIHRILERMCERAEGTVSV
# [4] = test system: Mast/stem cell growth factor receptor Kit (Homo sapiens), P10721 [V559D,T670I]; test: Inhibition of KIT V559D/T670I mutant (unknown origin) assessed as residual activity at 100 nM by KINOMEscan analysis relative to control
# [5] = biological target: Serine/threonine-protein kinase PLK2 (Homo sapiens) (UniProt Q9NYY3); test: Inhibition of PLK2 (unknown origin) assessed as residual activity at 100 nM by KINOMEscan analysis relative to control
# [6] = test system: Fibroblast growth factor receptor 3 (Homo sapiens), P22607 [G697C]; test: Inhibition of FGFR3 G697C mutant (unknown origin) assessed as residual activity at 100 nM by KINOMEscan analysis relative to control
# [7] = test system: Proto-oncogene tyrosine-protein kinase receptor Ret (Homo sapiens), P07949 [V804M]; test: Inhibition of RET V804M mutant (unknown origin) assessed as residual activity at 100 nM by KINOMEscan analysis relative to control
# Proto-oncogene tyrosine-protein kinase receptor Ret (Homo sapiens), P07949 [V804M], sequence (P07949 whole entry V804M): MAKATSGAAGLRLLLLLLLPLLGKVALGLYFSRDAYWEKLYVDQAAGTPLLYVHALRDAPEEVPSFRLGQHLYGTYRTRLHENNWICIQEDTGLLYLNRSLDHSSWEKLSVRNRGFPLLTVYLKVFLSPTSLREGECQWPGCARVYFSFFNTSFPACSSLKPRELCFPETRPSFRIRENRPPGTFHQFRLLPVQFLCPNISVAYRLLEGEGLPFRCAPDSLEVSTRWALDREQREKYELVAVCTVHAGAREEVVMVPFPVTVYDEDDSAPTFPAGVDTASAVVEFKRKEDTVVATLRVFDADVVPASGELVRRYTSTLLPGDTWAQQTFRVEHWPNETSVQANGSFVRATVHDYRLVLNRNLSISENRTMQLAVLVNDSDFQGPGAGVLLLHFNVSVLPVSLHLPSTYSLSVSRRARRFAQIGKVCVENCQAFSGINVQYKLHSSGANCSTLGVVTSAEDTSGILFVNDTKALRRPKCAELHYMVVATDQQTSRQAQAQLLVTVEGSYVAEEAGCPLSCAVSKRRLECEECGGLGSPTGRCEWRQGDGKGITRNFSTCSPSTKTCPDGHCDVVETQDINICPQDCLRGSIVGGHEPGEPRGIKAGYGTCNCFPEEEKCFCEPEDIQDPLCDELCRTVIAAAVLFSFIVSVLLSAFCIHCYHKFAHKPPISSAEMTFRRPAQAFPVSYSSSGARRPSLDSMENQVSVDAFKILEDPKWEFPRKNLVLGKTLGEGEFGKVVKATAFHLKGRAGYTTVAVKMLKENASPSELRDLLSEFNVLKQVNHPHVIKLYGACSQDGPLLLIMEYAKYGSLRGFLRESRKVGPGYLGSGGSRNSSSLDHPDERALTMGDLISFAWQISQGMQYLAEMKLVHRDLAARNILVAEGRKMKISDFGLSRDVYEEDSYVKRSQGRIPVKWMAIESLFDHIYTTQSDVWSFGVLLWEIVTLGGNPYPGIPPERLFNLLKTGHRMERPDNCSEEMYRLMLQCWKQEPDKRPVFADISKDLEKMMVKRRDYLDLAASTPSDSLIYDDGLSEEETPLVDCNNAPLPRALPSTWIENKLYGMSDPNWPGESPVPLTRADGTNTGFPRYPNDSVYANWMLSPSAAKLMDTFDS
# Mast/stem cell growth factor receptor Kit (Homo sapiens), P10721 [V559D,T670I], sequence (P10721 whole entry V559D/T670I): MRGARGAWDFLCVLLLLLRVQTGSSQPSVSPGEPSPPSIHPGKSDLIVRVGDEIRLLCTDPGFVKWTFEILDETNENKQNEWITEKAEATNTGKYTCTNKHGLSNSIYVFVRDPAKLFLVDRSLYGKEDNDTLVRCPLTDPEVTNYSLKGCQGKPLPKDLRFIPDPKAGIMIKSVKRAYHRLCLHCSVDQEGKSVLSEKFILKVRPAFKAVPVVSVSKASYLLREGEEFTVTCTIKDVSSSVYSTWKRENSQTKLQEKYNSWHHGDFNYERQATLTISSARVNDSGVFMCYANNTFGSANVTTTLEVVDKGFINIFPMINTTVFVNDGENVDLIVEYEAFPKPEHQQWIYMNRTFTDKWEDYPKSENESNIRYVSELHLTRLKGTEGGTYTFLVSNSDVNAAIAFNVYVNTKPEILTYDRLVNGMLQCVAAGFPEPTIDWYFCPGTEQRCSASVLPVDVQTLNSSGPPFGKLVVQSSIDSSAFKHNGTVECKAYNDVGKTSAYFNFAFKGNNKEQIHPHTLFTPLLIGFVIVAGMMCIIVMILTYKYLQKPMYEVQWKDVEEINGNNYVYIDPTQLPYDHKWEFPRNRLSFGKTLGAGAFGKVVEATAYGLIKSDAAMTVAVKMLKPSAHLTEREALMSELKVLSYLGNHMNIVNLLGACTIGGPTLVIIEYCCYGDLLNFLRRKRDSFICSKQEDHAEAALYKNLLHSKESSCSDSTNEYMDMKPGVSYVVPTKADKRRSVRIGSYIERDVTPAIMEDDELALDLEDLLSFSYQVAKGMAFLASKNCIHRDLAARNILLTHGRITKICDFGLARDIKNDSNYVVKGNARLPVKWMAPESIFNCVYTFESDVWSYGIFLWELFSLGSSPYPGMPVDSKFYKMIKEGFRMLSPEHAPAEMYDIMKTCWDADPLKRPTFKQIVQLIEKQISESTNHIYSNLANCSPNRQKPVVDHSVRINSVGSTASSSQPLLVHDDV
# Fibroblast growth factor receptor 3 (Homo sapiens), P22607 [G697C], sequence (P22607 whole entry G697C): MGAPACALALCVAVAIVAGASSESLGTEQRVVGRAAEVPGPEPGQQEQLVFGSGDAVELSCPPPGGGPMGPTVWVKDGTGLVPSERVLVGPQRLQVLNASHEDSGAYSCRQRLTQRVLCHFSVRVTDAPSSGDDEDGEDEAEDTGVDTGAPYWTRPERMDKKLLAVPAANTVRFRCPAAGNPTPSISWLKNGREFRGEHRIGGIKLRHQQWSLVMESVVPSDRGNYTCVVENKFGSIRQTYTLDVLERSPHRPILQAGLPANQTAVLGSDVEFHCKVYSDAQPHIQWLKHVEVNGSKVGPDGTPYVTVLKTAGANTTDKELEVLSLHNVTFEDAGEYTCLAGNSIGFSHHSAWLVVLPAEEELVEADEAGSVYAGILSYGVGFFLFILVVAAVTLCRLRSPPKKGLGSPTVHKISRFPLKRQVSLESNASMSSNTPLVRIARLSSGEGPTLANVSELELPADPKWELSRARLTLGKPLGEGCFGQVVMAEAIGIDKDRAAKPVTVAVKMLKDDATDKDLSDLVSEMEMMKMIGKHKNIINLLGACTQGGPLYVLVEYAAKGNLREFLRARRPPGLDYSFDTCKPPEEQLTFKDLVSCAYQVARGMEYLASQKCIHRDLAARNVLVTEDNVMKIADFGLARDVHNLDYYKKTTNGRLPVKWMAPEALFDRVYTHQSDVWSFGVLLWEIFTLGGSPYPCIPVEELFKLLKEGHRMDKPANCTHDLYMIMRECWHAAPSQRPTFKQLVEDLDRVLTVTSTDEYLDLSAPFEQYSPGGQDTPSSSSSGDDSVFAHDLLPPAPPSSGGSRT
# Serine/threonine-protein kinase PLK2 (Homo sapiens), sequence (Q9NYY3 whole entry, looked up): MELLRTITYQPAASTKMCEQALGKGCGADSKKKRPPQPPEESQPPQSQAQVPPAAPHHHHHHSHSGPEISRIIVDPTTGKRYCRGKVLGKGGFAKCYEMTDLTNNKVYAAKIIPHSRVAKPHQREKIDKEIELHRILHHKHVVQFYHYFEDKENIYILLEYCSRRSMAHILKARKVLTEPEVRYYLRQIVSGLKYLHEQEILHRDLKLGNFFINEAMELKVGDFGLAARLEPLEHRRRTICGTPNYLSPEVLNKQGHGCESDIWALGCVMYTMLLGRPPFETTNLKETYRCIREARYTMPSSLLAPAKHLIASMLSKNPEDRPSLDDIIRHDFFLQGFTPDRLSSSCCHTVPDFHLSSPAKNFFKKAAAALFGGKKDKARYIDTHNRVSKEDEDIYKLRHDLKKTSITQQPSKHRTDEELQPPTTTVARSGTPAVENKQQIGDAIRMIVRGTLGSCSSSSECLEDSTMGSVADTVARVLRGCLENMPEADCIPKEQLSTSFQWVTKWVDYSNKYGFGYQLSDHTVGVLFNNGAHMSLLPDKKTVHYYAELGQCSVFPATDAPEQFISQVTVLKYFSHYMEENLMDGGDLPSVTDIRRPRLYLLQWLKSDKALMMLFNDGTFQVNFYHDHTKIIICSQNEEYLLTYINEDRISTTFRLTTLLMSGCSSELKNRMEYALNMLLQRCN
structure (smiles),measurement,setting,value
COc1cc2ncnc(N[C@H](C)c3cccc4ccccc34)c2cc1OC,Activity,[1],100%
same,Activity,[2],100%
same,Activity,[3],98%
same,Activity,[4],92%
same,Activity,[5],92%
same,Activity,[6],66%
same,Activity,[7],100%
